In patent US20220401408A1, “COMPOSITIONS AND METHODS FOR RESCUING RETINAL AND CHOROIDAL STRUCTURE AND FUNCTION” (AUCKLAND UNISERVICES LIMITED, priority 2019, published 2022):

Key:
[1] = Estimated circulating concentration after oral tonabersat in peanut butter; format: in vivo, Sprague Dawley (SD) rats
Protocol: Tonabersat treatment of light damaged rats—LD rats were randomly assigned to low, middle or high dose of tonabersat (n=7 per group). The mixture of tonabersat in peanut butter was prepared fresh for each experiment. Three oral tonabersat doses were tested (n=7 per group) with follow up to 2 weeks post-injury, and the highest dose group then split with three animals taken for histological analysis, and four animals followed to 3 months post-injury. There was a ten-animal vehicle only control group. The group of rats that were kept for 3 months were maintained in separate cages for drug or vehicle-treated animals, but were kept under the same light conditions. Tonabersat was fed to animals in peanut butter at 0.26 mg/kg (on average 0.08 mg delivered, estimated circulating concentration 10 μM), 0.8 mg/kg (average of 0.24 mg delivered; 30 μM circulating) or 2.4 mg/kg (on average 0.72 mg delivered; 90 μM circulating) following consideration of previous unsuccessful human trial dosing levels. Silberstein S D. Tonabersat, a novel gap-junction modulator for the prevention of migraine. Cephalalgia. 2009; 29 Suppl 2:28-35; Dahlof C G, Hauge A W, Olesen J. Efficacy and safety of tonabersat, a gap-junction modulator, in the acute treatment of migraine: a double-blind, parallel-group, randomized study. Cephalalgia. 2009; 29 Suppl 2:7-16; Goadsby P J, Ferrari M D, Csanyi A, Olesen J, Mills J G, Tonabersat TONSG. Randomized, double-blind, placebo-controlled, proof-of-concept study of the cortical spreading depression inhibiting agent tonabersat in migraine prophylaxis. Cephalalgia. 2009; 29:742-50. […] The treatment groups were known to the investigator at the time of treatment, but groups were then randomized prior to statistical comparison which meant that analysis was conducted without the knowledge of which were treated or control animals. […] Two weeks later animals were again assessed with ERG and OCT and tissue collection proceeded immediately after, except for four rats in the high dose group that were under experimentation for 3 more months.

[2] = Body weight of hyperglycemic rats; format: in vivo, SD rats (spontaneously hyperglycemic strain); details: 0.28 mg/kg once daily 14 days; week 8
Excerpt: Hyperglycemic Rat Diabetic Retinopathy Model—A spontaneously hyperglycemic strain of SD rats, which developed clinical signs of diabetic retinopathy within 4 weeks of birth were identified and isolated within the Vernon Jansen Animal Research Unit, Faculty of Medical and Health Sciences at the University of Auckland. The identification of these rats presenting with hyperglycemia and microaneurysms provided an opportunity to treat a complex, chronic disease model and assess the treatment effect based upon objective, measurable endpoints, despite lacking precise information on the etiology of the disease. Inbreeding was carried out over three generations and eyes were screened for abnormalities between 4-8 weeks of age. […]
Ten rats per group were the selected (10 normal SD and 10 hyperglycemic) grown to 5 weeks of age and assessed using OCT and ERG. […] All animals were assessed again using ERG and OCT at 8 weeks of age before euthanizing animals and removing the eyes for immunohistochemical analysis. […] In summary, normal SD and hyperglycemic rats were analyzed with OCT and ERG at 5 weeks of age; the hyperglycemic rats were then split into two groups and fed the vehicle or tonabersat for 14 days during weeks 6 and 7 of age. At week 8, animals were again assessed with ERG and OCT and tissues collected for immunohistochemical analysis. […]

estimated circulating concentration ([1]; 0.26 mg/kg oral in peanut butter (on average 0.08 mg delivered)): 10 µM
estimated circulating concentration ([1]; 0.8 mg/kg oral in peanut butter (average 0.24 mg delivered)): 30 µM
estimated circulating concentration ([1]; 2.4 mg/kg oral in peanut butter (on average 0.72 mg delivered)): 90 µM
Compound: CC(=O)c1ccc2c(c1)[C@H](NC(=O)c1ccc(F)c(Cl)c1)[C@H](O)C(C)(C)O2 [tonabersat, N-[(3S,4S)-6-acetyl-3-hydroxy-2,2-dimethyl-3,4-dihydrochromen-4-yl]-3-chloro-4-fluorobenzamide]
body weight, treated vs untreated hyperglycemic rats [2]: no difference
